{"source": "patent US20260125374A1", "about": "“PI3K-ALPHA INHIBITORS AND METHODS OF MAKING AND USING THE SAME” (Relay Therapeutics, Inc., priority 2021, published 2026)", "type_in_all_cases": "physicochemical", "key": {"[1]": {"assay": "Salt screening (XRPD, chiral purity of hits)", "protocol": "Based on the pKa of I-1 free form, 23 counter ions were selected as salt/cocrystal forming agents. Methanol, acetone and isopropyl acetate were used as screening solvents. 1.0 equivalent of selected counter ions/coformers was applied for salt screening. Slurry equilibration, slow evaporation and anti-solvent addition were used as crystallization methods. In total, about 70 screening experiments were conducted.\nAbout 50 mg of I-1 Form A were added to a suitable amount of solvent and 1.0 equivalent of counter ions were added under stirring at 50° C. for 2 hours and then at 25° C. for at least 12 hours. MeOH, acetone and IPAc were used as screening solvents.\nObtained suspensions were taken out and centrifuged. Solids obtained were analyzed by XRPD and salt screening results were summarized in Table 5.1, Table 5.2, and Table 5.3."}, "Bulk stability (1 week)": {"assay": "Bulk stability (1 week)", "design": "key to CL (color): A: No change of color; B: Slight discoloration; C: Medium discoloration; D: Strong discoloration; DC: complete decomposition", "conditions": "for CL (color) / Bulk (HPLC) chiral purity / Bulk (HPLC) purity / Bulk (XRPD): Solid state", "protocol": "Bulk stability of I-1 Form A and the 2 salt candidates was investigated at 25° C./92% RH in an open container, at 40° C./75% RH in an open container and at 60° C. in a tight container over 1 week. […] All the 3 salts show no obvious racemization based on chiral purity results.\nI-1 Form A and the 2 salts were placed at 25° C./92% RH in an open container, at 40° C./75% RH in an open container and at 60° C. in a closed container for I week. Samples after I week were characterized by XRPD and HPLC and inspected for color change."}, "[2]": {"assay": "Suspension stability at 25° C.", "conditions": "for physical form of residual solids (XRPD): 0.5% MC (400 cP)+2% Vitamin E TPGS; for Chiral purity / Purity / Solubility / pH / Chiral purity (solids) / Chiral purity, liquid / Chiral purity, solid: 25° C.", "protocol": "Suspension stability: Suspension stability of I-1 Form A and the 2 salt candidates was investigated in pure water, 0.5% (w/w) Tween 80 aqueous solution and 0.5% (w/w) MC (400 cP)+2% (w/w) Vitamin E TPGS aqueous solution at 25° C. for 2 h and 24 h. Target concentration was 2 mg/mL.\nTo confirm whether racemization occurs for the 2 salts in 0.5% (w/w) MC (400 cP)+2% (w/w) Vitamin E TPGS aqueous solution, the suspension stability in this vehicle was repeated at target concentration of 10 mg/mL. […] The hygroscopicity of these salts were further investigated.\nAccurate 10 mg of I-1 Form A, 12.83 mg of I-3 Form A, 11.58 mg of I-4 Form A was weighed into a 8 mL glass vial, respectively. 5 mL of suspension vehicle was added, respectively. The salt amount used is equivalent to 10 mg anhydrous free form. These suspensions were stirred at 25° C. with 400 rpm. These suspensions were taken out at 2 hours and 24 hours, then centrifuged at 14,000 rpm for 5 min. The supernatants were analyzed by HPLC and pH meter. Solids obtained (wet cakes) were characterized by XRPD and HPLC to determine the chiral purity.\nAccurate […] of I-3 Form A, 46.3 mg of I-4 Form A was weighed into a 8 mL glass vial, respectively. 4 mL of solubility medium was added, respectively. The salt amount used is equivalent to 40 mg anhydrous free form. 4 mL of the aqueous vehicle (0.5% (w/w) MC (400 cP) and 2% (w/w) Vitamin E TPGS in water) was added, respectively. These suspensions were stirred at 25° C. with 400 rpm. These suspensions were taken out at 2 hours and 24 hours, then centrifuged at 14,000 rpm for 5 min. The supernatants were analyzed by HPLC for the solubility and chiral purity and analyzed by pH meter. Solids obtained (wet cakes) were characterized by XRPD and HPLC for chiral purity."}, "[3]": {"conditions": "crystalline hits of salt screening, listed as I-3 Form A"}, "[4]": {"conditions": "Salt candidates risk matrix (summary)"}, "[5]": {"conditions": "25° C./92% RH, open container, 1 week, listed as I-3 Form A"}, "[6]": {"conditions": "40° C./75% RH, open container, 1 week, listed as I-3 Form A"}, "[7]": {"conditions": "60° C., tight container, 1 week"}, "[8]": {"conditions": "60° C., tight container, 1 week, listed as I-3 Form A"}, "[9]": {"conditions": "before storage, listed as I-3 Form A"}, "[10]": {"conditions": "2 mg/mL, 0.5%(w/w) MC(400 cP) and 2%(w/w) Vitamin E TPGS in water, 2 h, listed as I-3 Form A"}, "[11]": {"conditions": "2 mg/mL, 0.5%(w/w) MC(400 cP) and 2%(w/w) Vitamin E TPGS in water, 24 h, listed as I-3 Form A"}, "[12]": {"conditions": "2 mg/mL, 0.5%(w/w) Tween 80 in water, 2 h, listed as I-3 Form A"}, "[13]": {"conditions": "2 mg/mL, 0.5%(w/w) Tween 80 in water, 24 h, listed as I-3 Form A"}, "[14]": {"conditions": "2 mg/mL, Pure water, 2 h, listed as I-3 Form A"}, "[15]": {"conditions": "2 mg/mL, Pure water, 24 h, listed as I-3 Form A"}, "[16]": {"conditions": "10 mg/mL, 0.5(w/w) MC(400 cP) and 2%(w/w) Vitamin E TPGS in water, 2 h, listed as I-3 Form A"}, "[17]": {"conditions": "10 mg/mL, 0.5(w/w) MC(400 cP) and 2%(w/w) Vitamin E TPGS in water, 24 h, listed as I-3 Form A"}}, "note": "Entries after “also recorded” stand apart in the source; their conditions may differ.", "data": [{"smiles": "N#Cc1c(-c2cc(NC(=O)c3cc(F)cc(C(F)(F)F)c3)c3c(c2)C(=O)N[C@H]3c2cc(F)ccc2Cl)ccc2ncnn12", "note": "[Compound I-3]", "values": [{"measurement": "Salt screening result (slurry crystallization)", "setting": "[1]; 1.0 equiv. p-toluenesulfonic acid, Acetone", "result": "+ (I-3 Form A) (Salt hits)"}, {"measurement": "Salt screening result (slurry crystallization)", "setting": "[1]; 1.0 equiv. p-toluenesulfonic acid, Isopropyl acetate", "result": "+ (I-3 Form A) (Salt hits)"}, {"measurement": "Salt screening result (slurry crystallization)", "setting": "[1]; 1.0 equiv. p-toluenesulfonic acid, MeOH", "result": "+ (I-3 Form A) (Salt hits)"}, {"measurement": "chiral stability in salt screening and scale up solvents", "setting": "[1]; MeOH, acetone and IPAc, acetone", "result": "good chiral stability"}, {"measurement": "Chiral purity (by HPLC)", "setting": "[1]; [3]", "result": 99.8, "unit": "%"}, {"measurement": "Crystallinity (By XRPD)", "setting": "[1]; [3]", "result": "High"}, {"measurement": "Chiral purity of salt screening solid", "setting": "[1]; slurry, 1.0 equiv. p-toluenesulfonic acid, Acetone", "result": "Chiral purity: 99.8%"}, {"measurement": "bulk stability (chemical and physical)", "setting": "Bulk stability (1 week); 25° C./92% RH open, 40° C./75% RH open, 60° C. tight container, 1 week, listed as I-3 Form A", "result": "chemically and physically stable; also recorded: chemically stable and shows no XRPD change; also recorded: good chemical and physical bulk stability"}, {"measurement": "Chemical stability", "setting": "Bulk stability (1 week); [4]", "result": "Stable"}, {"measurement": "Physical stability", "setting": "Bulk stability (1 week); [4]", "result": "Stable"}, {"measurement": "CL (color)", "setting": "Bulk stability (1 week); 25° C./92% RH, open container, 1 week", "result": "A"}, {"measurement": "Bulk (HPLC) chiral purity", "setting": "Bulk stability (1 week); [5]", "result": 98.3, "unit": "%"}, {"measurement": "Bulk (HPLC) purity", "setting": "Bulk stability (1 week); [5]", "result": 99.4, "unit": "%/"}, {"measurement": "Bulk (XRPD)", "setting": "Bulk stability (1 week); [5]", "result": "No form change*"}, {"measurement": "CL (color)", "setting": "Bulk stability (1 week); 40° C./75% RH, open container, 1 week", "result": "A"}, {"measurement": "Bulk (HPLC) chiral purity", "setting": "Bulk stability (1 week); [6]", "result": 98.5, "unit": "%"}, {"measurement": "Bulk (HPLC) purity", "setting": "Bulk stability (1 week); [6]", "result": 99.3, "unit": "%/"}, {"measurement": "Bulk (XRPD)", "setting": "Bulk stability (1 week); [6]", "result": "No form change*"}, {"measurement": "Bulk (XRPD)", "setting": "Bulk stability (1 week); [7]", "result": "No form change"}, {"measurement": "CL (color)", "setting": "Bulk stability (1 week); [7]", "result": "A"}, {"measurement": "Bulk (HPLC) chiral purity", "setting": "Bulk stability (1 week); [8]", "result": 98.3, "unit": "%"}, {"measurement": "Bulk (HPLC) purity", "setting": "Bulk stability (1 week); [8]", "result": 99.5, "unit": "%/"}, {"measurement": "Chiral purity (initial)", "setting": "Bulk stability (1 week); [9]", "result": 98.6, "unit": "%"}, {"measurement": "Initial purity by HPLC", "setting": "Bulk stability (1 week); [9]", "result": 99.5, "unit": "%"}, {"measurement": "physical form of residual solids (XRPD)", "setting": "[2]; 10 mg/mL, 2 h sample, listed as I-3 Form A", "result": "converted to a hydrate (I-3 Form B)"}, {"measurement": "physical form of residual solids (XRPD)", "setting": "[2]; 10 mg/mL, 2 h sample, listed as tosylate salt", "result": "a form change"}, {"measurement": "physical form of residual solids (XRPD)", "setting": "[2]; 10 mg/mL, 24 h sample", "result": "remained unchanged"}, {"measurement": "Chiral purity", "setting": "[2]; [10]", "result": 86.4, "unit": "%"}, {"measurement": "Purity", "setting": "[2]; [10]", "result": 99.3, "unit": "%"}, {"measurement": "Solubility", "setting": "[2]; [10]", "result": 1220.9, "unit": "µg/mL"}, {"measurement": "pH", "setting": "[2]; [10]", "result": 2.76}, {"measurement": "Chiral purity", "setting": "[2]; [11]", "result": 98.3, "unit": "%"}, {"measurement": "Purity", "setting": "[2]; [11]", "result": 99.3, "unit": "%"}, {"measurement": "Solubility", "setting": "[2]; [11]", "result": 1990.7, "unit": "µg/mL"}, {"measurement": "pH", "setting": "[2]; [11]", "result": 2.62}, {"measurement": "Chiral purity", "setting": "[2]; [12]", "result": 95.8, "unit": "%"}, {"measurement": "Chiral purity (solids)", "setting": "[2]; [12]", "result": 98.0, "unit": "%"}, {"measurement": "Purity", "setting": "[2]; [12]", "result": 99.4, "unit": "%"}, {"measurement": "Solubility", "setting": "[2]; [12]", "result": 244.6, "unit": "µg/mL"}, {"measurement": "pH", "setting": "[2]; [12]", "result": 3.11}, {"measurement": "Chiral purity", "setting": "[2]; [13]", "result": 98.5, "unit": "%"}, {"measurement": "Chiral purity (solids)", "setting": "[2]; [13]", "result": 94.2, "unit": "%"}, {"measurement": "Purity", "setting": "[2]; [13]", "result": 99.4, "unit": "%"}, {"measurement": "Solubility", "setting": "[2]; [13]", "result": 17.9, "unit": "µg/mL"}, {"measurement": "pH", "setting": "[2]; [13]", "result": 2.63}, {"measurement": "Chiral purity (solids)", "setting": "[2]; [14]", "result": 98.3, "unit": "%"}, {"measurement": "Purity", "setting": "[2]; [14]", "result": 99.6, "unit": "%"}, {"measurement": "pH", "setting": "[2]; [14]", "result": 5.59}, {"measurement": "Chiral purity (solids)", "setting": "[2]; [15]", "result": 98.3, "unit": "%"}, {"measurement": "Purity", "setting": "[2]; [15]", "result": 99.5, "unit": "%"}, {"measurement": "pH", "setting": "[2]; [15]", "result": 2.85}, {"measurement": "Chiral purity, liquid", "setting": "[2]; [16]", "result": "99.4%;"}, {"measurement": "Chiral purity, solid", "setting": "[2]; [16]", "result": 97.9, "unit": "%"}, {"measurement": "Solubility", "setting": "[2]; [16]", "result": 3433.2, "unit": "µg/mL"}, {"measurement": "pH", "setting": "[2]; [16]", "result": 2.30}, {"measurement": "Chiral purity, liquid", "setting": "[2]; [17]", "result": "99.4%;"}, {"measurement": "Chiral purity, solid", "setting": "[2]; [17]", "result": 98.3, "unit": "%"}, {"measurement": "Purity", "setting": "[2]; [17]", "result": 99.7, "unit": "%"}, {"measurement": "Solubility", "setting": "[2]; [17]", "result": 3083.9, "unit": "µg/mL"}, {"measurement": "pH", "setting": "[2]; [17]", "result": 2.17}, {"measurement": "Initial chiral purity", "setting": "[2]; before suspension, listed as I-3 Form A", "result": "Initial chiral purity: 98.6%"}]}]}
